Results from patent US20180264134A1, “A COMPOSITION OF GOLD NANOPARTICLES HAVING ANTIMICROBIAL PEPTIDES BOUND ON THEIR SURFACE FOR USE THE TREATMENT OF WOUND HEALING OR IN THE TREATMENT OF ISCHEMIC OR VASCULAR DISEASES OR IN THE TREATMENT OF SKIN DISORDERS” (priority 2015, published 2018).

How the values were obtained:
[1] = system: clathrin-mediated endocytosis; experiment: FITC-labelled transferrin uptake (validation of dynasore); type: cell-based, human; details: 80 μM, 30 min pre-incubation, keratinocytes
Protocol: In an embodiment the HaCaT keratinocyte cells were cultured on 24 well plates (1×10^6 cells/well) and inhibited by one of the following chemicals during 30 min before adding a suspension of Rhodamine-labelled NPs (15 μg/mL): dynasor (100 μM), cytochalasin D (100 μM), nocodazole (25 uM), filipin III (1 μM) and polyinosinic acid (100 μg/mL), 5-(N-ethyl-N-isopropyl)amiloride (EIPA), dextran sulfate. The inhibitor concentrations were based in values reported in literature and further validated by us to have no cytotoxic effect over the period of the assay (6 h), as confirmed by viability assay. The incubation of the cells with NPs for different times was performed in the presence of the inhibitor. As controls, HaCaT keratinocyte cells without NPs and cells incubated with NPs without inhibitor were used. At the end of each time point, cells were centrifuged at 1300 rpm, 20° C. for 5 min, washed 3 times with cold PBS and then resuspended in PBS containing 2.5% FBS (500 μL) for FACS analysis. A total of 10,000 events were obtained per measurement. To validate the inhibitory activity of dynasor it were performed uptake studies of FITC-labeled transferrin, known to selectively enter cells via clathrin-mediated endocytosis. […] Cells were then evaluated as before.

platelets = experiment: Platelet activation (CD62P expression) in whole peripheral blood; type: cell-based, human; details: positive control
Protocol: In an embodiment, to evaluate the hemocompatibility of Au NPs and LL37-Au NPs, the induction of platelet activation was tested. Platelet activation was measured by the flow cytometric quantification of CD62P (P-selectin) expression. CD62P is a component of the α-granule membrane of resting platelets that is expressed on the platelet surface membrane only after α-granule secretion, which occurs during platelet activation. Platelets are very sensitive to in vitro activation and aggregation, therefore, the less they are manipulated the better, for this reason the whole peripherical blood (diluted in tyrode buffer) were incubated with the NPs instead of isolating platelet rich plasma. […] As positive control it was used ADP, a platelet activator, which induced the activation of 40% of the platelets (FIG. 13). […] In contrast, HUVECs were more sensitive to soluble LL37 than HaCaT showing cytotoxic effect at a concentration of 10 μg/mL and 30 μg/mL, respectively. Furthermore, LL37-Au NPs have lower cytotoxic and impact on membrane potential than soluble peptide that for the same concentration of LL37 (up to 100 μg/mL). Differences in the cell membrane composition between HUVECs and HaCaT might account for the differences between endothelial and epithelial cells response on LL37 cytotoxicity as supported by the result of membrane potential analysis (FIG. 13d).

SMILES | internalisation of FITC-labelled transferrin [1] | activated platelets (platelets) [%]
O=C(N/N=C/c1ccc(O)c(O)c1)c1cc2ccccc2cc1O [Dynasore, dynasore] | inhibits the internalisation of transferrin | –
Nc1ncnc2c1ncn2[C@@H]1O[C@H](COP(=O)(O)OP(=O)(O)O)[C@@H](O)[C@H]1O [ADP] | – | 40
